These results are taken from patent US20240182785A1, “COMPOUND, COMPOSITION, CURED PRODUCT, OPTICALLY ANISOTROPIC BODY, OPTICAL ELEMENT, AND LIGHT GUIDE ELEMENT” (FUJIFILM Corporation, priority 2021, published 2024).

Assay type in all cases: physicochemical
A short description of series [1]: Evaluation of liquid crystallinity (hot stage, polarization microscope). More on the design: key: A case of having liquid crystallinity was evaluated as A; a case of having no liquid crystallinity was evaluated as B. The settings on record: heated on a hot stage. Here is the method: The respective compounds (the compounds A-1 to A-11 and the compounds B-1 and B-2) were heated on a hot stage and observed with a polarization microscope, and the phase transition temperature was measured to evaluate the presence or absence of the liquid crystallinity. A case of having liquid crystallinity was evaluated as A, and a case of having no liquid crystallinity was evaluated as B. The results are shown in Table 1.
Since the compound A-8 has melting points of 200° C. or higher and undergoes a polymerization reaction during heating, liquid crystallinity could not be evaluated.

Series [2] in a line: Measurement of Δn (refractive index anisotropy), wedge-shaped liquid crystal cell. The settings on record: 550 nm, 30° C. or lower limit temperature of nematic phase +0 to 10° C.; some compounds extrapolated from 1/2 mixture with L-1-1. The procedure:
The Δn of each of the compounds (the compounds A-1 to A-11 and the compounds B-1 and B-2), which are the compounds to be measured, was measured by a method using a wedge-shaped liquid crystal cell described on page 202 in the Liquid crystal handbook (edited by the liquid crystal handbook editorial board, published by Maruzen Co., Ltd., 2000). Δn was defined as a measured value at a wavelength of 550 nm at 30° C. or the lower limit temperature of the nematic phase +0° C. to 10° C. In a case of a compound which is liable to crystallize or a compound having no liquid crystallinity, evaluation was carried out using a mixture thereof with the other liquid crystal compound, and Δn was estimated from the extrapolated value of the measured value thereof. The following L-1-1 was used as the other liquid crystal compound. As the above mixture, a mixture obtained by mixing at a ratio of the compound to be measured/the L-1-1=1/2 (in terms of mass ratio) was used.
A case where Δn was 0.40 or more was evaluated as A, a case where Δn was 0.35 or more and less than 0.40 was evaluated as B, a case where Δn was 0.30 or more and less than 0.35 was evaluated as C, and a case where Δn was less than 0.30 was evaluated as D. The results are shown in Table 1.

Series [3] in a line: Evaluation of solubility in cyclopentanone. The conditions noted are these: precipitation concentration in cyclopentanone at 25° C. Here is the method:
The solubility of each of the compounds (the compounds A-1 to A-11 and the compounds B-1 and B-2) in cyclopentanone was evaluated.

A short description of series [4]: Evaluation of light resistance of optically anisotropic layer (Super Xenon Weather Meter). The conditions noted are these: rate of change in Re of cured layer (25 parts compound, 75 parts L-1), 5 million lx, 50 hours, 63° C., 50% RH, oxygen-blocking. The procedure:
(§1) As shown below, the light resistance and the durability of the optically anisotropic layer produced using the composition containing each of the compounds A-1 to A-11 and the compounds B-1 and B-2 were evaluated.
(§2) A coating liquid having the following composition was prepared and applied by spin-coating, onto a rubbing-treated glass attached with an alignment film. Each composition was irradiated with ultraviolet rays of 300 mJ/cm^2 through a filter that cuts light having a wavelength of 350 nm or less on a hot plate which had been heated to a temperature at which a nematic phase is shown, whereby an optically anisotropic layer for a light resistance/durability test was produced.
(§3) The polymerizable liquid crystal compound L-1 is a mixture obtained by mixing at a
(§4) ratio of the following L-1-1/L-1-2/L-1-3=84/14/2 (in terms of mass ratio).
The produced optically anisotropic layers for light resistance/durability tests were irradiated with light using a Super Xenon Weather Meter SX75 manufactured by Suga Test Instruments Co., Ltd. Using KU-1000100 manufactured by King Seisakusho Co., Ltd. as a UV cut filter, a light resistance test was carried out by irradiation with 5 million lx of light for 50 hours under an oxygen-blocking condition. The temperature of the specimen to be tested (the temperature inside the test device) was set to 63° C. The relative humidity in the test device was 50% RH.
The Re of the optically anisotropic layer before and after the light resistance test was measured, the light resistance in a case where the rate of change in Re described below was less than 10% was evaluated as A, and the light resistance in a case where the rate of change in Re was 10% or more was evaluated as B. The smaller the rate of change in Re, the more excellent the light resistance.
(§5) Rate of change in Re (%)=[100×{|(Re after test)−(Re before test)|}/(Re before test)]
(§6) Re was measured with Axoscan manufactured by Axometrics Inc. at a wavelength of 550 nm, and the measurement temperature was set to room temperature.

Series [5] in a line: Evaluation of durability of optically anisotropic layer (moisture-heat resistance test). The conditions noted are these: rate of change in Re of cured layer (25 parts compound, 75 parts L-1), 136 hours at 100° C., humidity 95%. Here is the method:
as §1, §2, §3, §4, §5, §6
The produced optically anisotropic layer was allowed to be left for 136 hours at 100° C. and a humidity of 95%, whereby a moisture-heat resistance test was carried out. The rate of change in Re before and after the durability test was evaluated, the durability in a case where the rate of change in Re was less than 10% was evaluated as A, and the durability in a case where the rate of change in Re was 10% or more was evaluated as B. The smaller the rate of change in Re, the more excellent the durability.

Take `C=CC(=O)OCCc1ccc(C#Cc2ccc(-c3ccc(COc4ccc(C#Cc5ccc(CCOC(=O)C=C)cc5)cc4C(=O)OC)cc3)cc2)cc1` [Compound A-1]: in series [1], the Liquid crystallinity entry is “A”. In addition, the Δn result in series [2] is “B (a case where Δn was 0.35 or more and less than 0.40 was evaluated as B)”. Also, the Solubility result in series [3] was “A (the solubility in a case where the precipitation concentration was 5% by mass or more was evaluated as A)”. The Light resistance result in series [4] is “A (the light resistance in a case where the rate of change in Re described below was less than 10% was evaluated as A)”. Moreover, in series [5], the Durability entry is recorded as “A (the durability in a case where the rate of change in Re was less than 10% was evaluated as A)”.
Turning to `C=CC(=O)OCCSc1ccc(C#Cc2ccc(OCc3ccc4cc(C#Cc5ccc(SCCOC(=O)C=C)cc5)ccc4c3)c(C(=O)OC)c2)cc1` [Compound A-2], the Liquid crystallinity entry in series [1] is “A”. Further, the Δn result in series [2] was “A (A case where Δn was 0.40 or more was evaluated as A)”. For the same molecule, the Solubility entry in series [3] was “A (the solubility in a case where the precipitation concentration was 5% by mass or more was evaluated as A)”. In addition, the Light resistance entry in series [4] is recorded as “A (the light resistance in a case where the rate of change in Re described below was less than 10% was evaluated as A)”. In addition, in series [5], the Durability result is “A (the durability in a case where the rate of change in Re was less than 10% was evaluated as A)”.
For `C=CC(=O)OCCSc1ccc(C#Cc2ccc(OCc3ccc4cc(C#Cc5ccc(SCCOC(=O)C=C)cc5)ccc4c3)c(C(=O)OCC)c2)cc1` [Compound A-3] the same measures were “A”, “A (A case where Δn was 0.40 or more was evaluated as A)”, “A (the solubility in a case where the precipitation concentration was 5% by mass or more was evaluated as A)”, “A (the light resistance in a case where the rate of change in Re described below was less than 10% was evaluated as A)” and “A (the durability in a case where the rate of change in Re was less than 10% was evaluated as A)”.
In the case of `C=CC(=O)OCCSc1ccc(C#Cc2cc(C)c(OCc3ccc4cc(C#Cc5ccc(SCCOC(=O)C=C)cc5)ccc4c3)c(C)c2)cc1` [Compound A-4], the Liquid crystallinity result in series [1] is reported as “A”. In addition, the Δn entry in series [2] is reported as “A (A case where Δn was 0.40 or more was evaluated as A)”. In series [3], the Solubility result is listed as “A (the solubility in a case where the precipitation concentration was 5% by mass or more was evaluated as A)”. For the same molecule, the Light resistance entry in series [4] is “A (the light resistance in a case where the rate of change in Re described below was less than 10% was evaluated as A)”. Further, in series [5], the Durability result is listed as “A (the durability in a case where the rate of change in Re was less than 10% was evaluated as A)”.
In the case of `C=CC(=O)OCCSc1ccc(C#Cc2ccc(-c3ccc(COc4ccc(C#Cc5ccc(SCCOC(=O)C=C)cc5)cc4C(=O)OC)cc3)cc2)cc1` [Compound A-6], in series [1], the Liquid crystallinity entry is “A”. Besides, in series [2], the Δn entry is given as “A (A case where Δn was 0.40 or more was evaluated as A)”. Besides, the Solubility result in series [3] was “A (the solubility in a case where the precipitation concentration was 5% by mass or more was evaluated as A)”. Also, in series [4], the Light resistance entry was “A (the light resistance in a case where the rate of change in Re described below was less than 10% was evaluated as A)”. For the same molecule, the Durability result in series [5] is “A (the durability in a case where the rate of change in Re was less than 10% was evaluated as A)”.
As to `COC(=O)c1cc(C#Cc2ccc(CCOC(C)=O)cc2)ccc1OCc1ccc(-c2ccc(C#Cc3ccc(CCOC(C)=O)cc3)cc2)cc1` [Compound A-7], the Liquid crystallinity entry in series [1] is recorded as “A”. For the same molecule, the Δn entry in series [2] is “B (a case where Δn was 0.35 or more and less than 0.40 was evaluated as B)”. For the same molecule, the Solubility entry in series [3] was “A (the solubility in a case where the precipitation concentration was 5% by mass or more was evaluated as A)”. For the same molecule, in series [4], the Light resistance result is “A (the light resistance in a case where the rate of change in Re described below was less than 10% was evaluated as A)”. The Durability result in series [5] is reported as “B (the durability in a case where the rate of change in Re was 10% or more was evaluated as B)”.
Turning to `C=CC(=O)OCCSc1ccc(C#Cc2ccc(OCc3ccc4cc(C#Cc5ccc(SCCOC(=O)C=C)cc5)ccc4c3)cc2)cc1` [Compound A-8], the Δn entry in series [2] is “A (A case where Δn was 0.40 or more was evaluated as A)”. Further, in series [3], the Solubility result is “B (the solubility in a case where the precipitation concentration was less than 5% by mass was evaluated as B)”. The Light resistance result in series [4] was “A (the light resistance in a case where the rate of change in Re described below was less than 10% was evaluated as A)”. Also, the Durability result in series [5] is “A (the durability in a case where the rate of change in Re was less than 10% was evaluated as A)”.
For the molecule `C=CC(=O)OCCCCSc1nc2ccc(C#Cc3ccc(OCc4ccc5cc(C#Cc6ccc7nc(SCCCCOC(=O)C=C)sc7c6)ccc5c4)c(C(=O)OC)c3)cc2s1` [Compound A-9], in series [1], the Liquid crystallinity result is “A”. For the same molecule, the Δn result in series [2] is recorded as “A (A case where Δn was 0.40 or more was evaluated as A)”. For the same molecule, the Solubility result in series [3] was “B (the solubility in a case where the precipitation concentration was less than 5% by mass was evaluated as B)”. In addition, the Light resistance result in series [4] is “B (the light resistance in a case where the rate of change in Re was 10% or more was evaluated as B)”. The Durability result in series [5] is reported as “A (the durability in a case where the rate of change in Re was less than 10% was evaluated as A)”.
For `C=CC(=O)OCCSc1ccc(C#Cc2ccc(OC(=O)c3ccc4cc(C#Cc5ccc(SCCOC(=O)C=C)cc5)ccc4c3)c(C(=O)OC)c2)cc1` [Compound A-10] the same measures were “A”, “A (A case where Δn was 0.40 or more was evaluated as A)”, “A (the solubility in a case where the precipitation concentration was 5% by mass or more was evaluated as A)”, “B (the light resistance in a case where the rate of change in Re was 10% or more was evaluated as B)” and “A (the durability in a case where the rate of change in Re was less than 10% was evaluated as A)”.
Turning to `C=CC(=O)OCCc1ccc(C#Cc2ccc(OCc3ccc4cc(C#Cc5ccc(CCOC(=O)C=C)cc5)ccc4c3)c(C(=O)OC)c2)cc1` [Compound A-11], the Liquid crystallinity entry in series [1] was “A”. For the same molecule, in series [2], the Δn entry is “B (a case where Δn was 0.35 or more and less than 0.40 was evaluated as B)”. For the same molecule, the Solubility result in series [3] is “A (the solubility in a case where the precipitation concentration was 5% by mass or more was evaluated as A)”. In addition, the Light resistance result in series [4] is on record as “A (the light resistance in a case where the rate of change in Re described below was less than 10% was evaluated as A)”. Also, the Durability entry in series [5] is recorded as “A (the durability in a case where the rate of change in Re was less than 10% was evaluated as A)”.
